“And” between values parts separate entries of the source, which are not always exact repeats. Identical values can stand only once.
Tested on: 616215-338-R-J1-PDC complex spheroid viability
Assay: Anticancer human tumor 616215-338-R-J1-PDC patient-derived colon adenocarcinoma cell line growth inhibition [RAS]
Details: for viability, T/C: stronger effect = lower value
Source text: RAS pathway inhibitors in Combinations in Complex Spheroids
A high-throughput screen of multi-cell type tumor spheroids was designed to identify active combinations of RAS pathway inhibitors and targeted small molecules. Complex spheroids include a stromal component modeled by human endothelial cells (HUVEC) and fibroblasts modeled by human mesenchymal stem cells (MSCs). The concentration ranges selected for each drug and investigational agent were based upon clinically achievable concentrations if the clinical Cmax of the agent was known.
Compounds. The drugs and investigational agents: abemaciclib (NSC768073), cobimetinib (NSC768068), divarasib (GDC6063, NSC841802), docetaxel (NSC628503), GDC-1971 (RLY-1971, NSC841576), gemcitabine (NSC613327), inavolisib (NSC800729), ipatasertib (NSC767898), KB-0742 (NSC834161), MRTX-1133 (NSC836407), osimertinib (NSC779217), RMC-4630 (NSC839698), RMC-6236 (NSC851965), RMC-6291 (NSC852671), Ro-3306 (NSC812927), sapanisertib (NSC764658), SN-38 (NSC673596), staurosporine (NSC755774), SY5609 (NSC837396), and tovorafenib (DAY101, NSC766906), were obtained from the National Cancer Institute (NCI) Developmental Therapeutics Program Chemical Repository. The FDA-approved anticancer drug set is available from the NCI Developmental Therapeutics Program. […] The stock solutions were prepared in dimethyl sulfoxide (DMSO, Sigma-Aldrich, St. Louis, MO, cat. D2650) at 800-fold the tested concentration and stored at -70 degrees C prior to their use. All drugs and investigational agents were tested over a range starting from a high concentration at or near the clinical Cmax and decreasing in half-log increments. If the clinical Cmax for an agent had not been determined, the highest concentration tested was 10 microM.
Cell Culture. All cells were maintained in an incubator at 37 degrees C and 5% CO2 with 95% humidity. The PDC lines were cultured according to standard operating procedures established by the NCI PDMR. All PDCs were thawed and cultured in Matrigel-coated flasks prepared with a working solution of 1X Ham's F-12 nutrient mix, without supplementation (Invitrogen, Waltham, MA, cat. 11765054), 100 U/mL penicillin-streptomycin (Invitrogen, cat. 15140122), and 2.5% Matrigel (Corning Inc., Corning, NY, cat. 354248) for the first three passages. The 362531-283-R-J2-PDC and 782815-120-R-J1-PDC lines were cultured in 6C/Colon 1B media, which includes advanced DMEM/F-12 (Thermo Fisher Scientific, cat. 12634028), 10 mM HEPES (Thermo Fisher Scientific, cat. 15630080), 1X GlutaMAX supplement (Thermo Fisher Scientific, cat. 35050061), 0.1 mg/mL primocin (InvivoGen, San Diego, CA, cat. ant-pm-2), 10% defined fetal bovine serum, heat inactivated (HyClone Laboratories Inc., Logan, UT, cat. SH30070.03HI), 50% L-WRN conditioned media (ATCC, cat. CRL-3276), 1.25 mM N-Acetyl-L-cysteine (Sigma-Aldrich, cat. A9165), 10 mM nicotinamide (Sigma-Aldrich, cat. N0636), 1X B-27 supplement (Thermo Fisher Scientific, cat. 17504044), 1X N-2 supplement (Thermo Fisher Scientific, cat. 17502048), 50 ng/mL human EGF (Thermo Fisher Scientific, cat. PHG0311), and 10 microM Y-27632 dihydrochloride (Tocris Bioscience, cat. 1254). The K12877-001-R-J1-PDC line was cultured in 6I media, which includes all 6C/Colon 1B media plus 10 ng/mL human FGF-10 (PeproTech, cat. 100-26), 1 ng/mL human FGF-2 (PeproTech, cat. 100-18B), 1 µM prostaglandin E2 (Tocris Bioscience, cat. 2296), […] hydrocortisone (Sigma-Aldrich, cat. H4001), and […] bovine insulin (Sigma-Aldrich, cat. I6634). The K86415-001-R-J1-PDC line was cultured in 6D media, which includes all 6C/Colon 1B media components minus the L-WRN conditioned media. The 485176-168-R4-J1-PDC was cultured in PANC media, which includes all 6C/Colon 1B media plus 100 ng/mL human FGF-10 (PeproTech, cat. 100-26), 500 nM SB-431542 (Selleckchem, cat. S1067), and 10 nM gastrin (Tocris Bioscience, cat. 3006). […]

[1] = curve of first compound, second compound 0.0316 µM
[2] = curve of first compound, second compound 0.1 µM
[3] = curve of first compound, second compound 0.316 µM
[4] = curve of first compound, second compound 1 µM
[5] = curve of first compound, second compound 3.16 µM
[6] = curve of first compound, second compound 10 µM
[7] = second compound 0.0316 µM, first compound 0.00316 µM
[8] = second compound 0.0316 µM, first compound 0.01 µM
[9] = second compound 0.0316 µM, first compound 0.0316 µM
[10] = second compound 0.0316 µM, first compound 0.1 µM
[11] = second compound 0.0316 µM, first compound 0.316 µM
[12] = second compound 0.0316 µM, first compound 1 µM
[13] = second compound 0.1 µM, first compound 0.00316 µM
[14] = second compound 0.1 µM, first compound 0.01 µM
[15] = second compound 0.1 µM, first compound 0.0316 µM
[16] = second compound 0.1 µM, first compound 0.1 µM
[17] = second compound 0.1 µM, first compound 0.316 µM
[18] = second compound 0.1 µM, first compound 1 µM
[19] = second compound 0.316 µM, first compound 0.00316 µM
[20] = second compound 0.316 µM, first compound 0.01 µM
[21] = second compound 0.316 µM, first compound 0.0316 µM
[22] = second compound 0.316 µM, first compound 0.1 µM
[23] = second compound 0.316 µM, first compound 0.316 µM
[24] = second compound 0.316 µM, first compound 1 µM
[25] = second compound 1 µM, first compound 0.00316 µM
[26] = second compound 1 µM, first compound 0.01 µM
[27] = second compound 1 µM, first compound 0.0316 µM
[28] = second compound 1 µM, first compound 0.1 µM
[29] = second compound 1 µM, first compound 0.316 µM
[30] = second compound 1 µM, first compound 1 µM
[31] = second compound 3.16 µM, first compound 0.00316 µM
[32] = second compound 3.16 µM, first compound 0.01 µM
[33] = second compound 3.16 µM, first compound 0.0316 µM
[34] = second compound 3.16 µM, first compound 0.1 µM
[35] = second compound 3.16 µM, first compound 0.316 µM
[36] = second compound 3.16 µM, first compound 1 µM
[37] = second compound 10 µM, first compound 0.00316 µM
[38] = second compound 10 µM, first compound 0.01 µM
[39] = second compound 10 µM, first compound 0.0316 µM
[40] = second compound 10 µM, first compound 0.1 µM
[41] = second compound 10 µM, first compound 0.316 µM
[42] = second compound 10 µM, first compound 1 µM
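Also: spheroids exposed to agents for seven days before viability readout.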
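For viability, T/C in this document: 100% = DMSO vehicle control viability.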

CC(=O)OC12COC1CC(O)C1(C)C(=O)C(O)C3=C(C)C(OC(=O)C(O)C(NC(=O)OC(C)(C)C)c4ccccc4)CC(O)(C(OC(=O)c4ccccc4)C21)C3(C)C (stereo not drawn)
viability, T/C (compound 0.0316 µM): 27.8% [middle of 4 runs]
viability, T/C (compound 0.1 µM): 21% [middle of 4 runs]
viability, T/C (compound 0.316 µM): 19.1% (2×) and 21.2% and 18.8%
viability, T/C (compound 1 µM): 21.3% [middle of 4 runs]
viability, T/C (compound 3.16 µM): 22.3% [middle of 4 runs]
viability, T/C (compound 10 µM): 28.5% [middle of 4 runs]
IC50 (curve of compound): < 0.0316 µM

Cc1nc(N2CCC3(CC2)COC(C)C3N)c(CO)nc1Sc1ccnc(N)c1Cl (stereo not drawn)
viability, T/C (compound 0.0316 µM): 105% (2×) and 103% and 97.3%
viability, T/C (compound 0.1 µM): 103% (2×) and 106% and 97.7%
viability, T/C (compound 0.316 µM): 109% [middle of 4 runs]
viability, T/C (compound 1 µM): 108% [middle of 4 runs]
viability, T/C (compound 3.16 µM): 86.9% [middle of 4 runs]
viability, T/C (compound 10 µM): 85.4% [middle of 4 runs]
IC50 (curve of compound): > 10 µM

NC1c2ccccc2OC12CCN(c1cnc3c(N4CCCc5ncccc54)n[nH]c3n1)CC2 (stereo not drawn)
viability, T/C (compound 0.0316 µM): 114% [middle of 4 runs]
viability, T/C (compound 0.316 µM): 92.2% [middle of 4 runs]
viability, T/C (compound 1 µM): 76.5% [middle of 4 runs]
viability, T/C (compound 10 µM): 55.8% [middle of 4 runs]
IC50 (curve of compound): > 10 µM and 3.16 µM and 6.76 µM

C=CC(=O)Nc1cc(Nc2nccc(-c3cn(C)c4ccccc34)n2)c(OC)cc1N(C)CCN(C)C + C#Cc1c(F)ccc2cc(O)cc(-c3ncc4c(N5CC6CCC(C5)N6)nc(OCC56CCCN5CC(F)C6)nc4c3F)c12
IC50 [1]: > 1 µM
IC50 [2]: > 1 µM
IC50 [3]: 0.846 µM
IC50 [4]: 0.587 µM
IC50 [5]: 0.15 µM
IC50 [6]: 0.15 µM
viability, T/C [7]: 101%
viability, T/C [8]: 109%
viability, T/C [9]: 101%
viability, T/C [10]: 106%
viability, T/C [11]: 98.1%
viability, T/C [12]: 68.4%
viability, T/C [13]: 106%
viability, T/C [14]: 108%
viability, T/C [15]: 104%
viability, T/C [16]: 110%
viability, T/C [17]: 115%
viability, T/C [18]: 74.5%
viability, T/C [19]: 114%
viability, T/C [20]: 110%
viability, T/C [21]: 109%
viability, T/C [22]: 109%
viability, T/C [23]: 93.2%
viability, T/C [24]: 42.7%
viability, T/C [25]: 112%
viability, T/C [26]: 109%
viability, T/C [27]: 117%
viability, T/C [28]: 82.4%
viability, T/C [29]: 75.5%
viability, T/C [30]: 31.4%
viability, T/C [31]: 104%
viability, T/C [32]: 124%
viability, T/C [33]: 79.8%
viability, T/C [34]: 59.6%
viability, T/C [35]: 42.2%
viability, T/C [36]: 35.9%
viability, T/C [37]: 67.2%
viability, T/C [38]: 71.2%
viability, T/C [39]: 62.2%
viability, T/C [40]: 56.5%
viability, T/C [41]: 39.4%
viability, T/C [42]: 21.7%

O=C(c1ccc(F)c(F)c1Nc1ccc(I)cc1F)N1CC(O)([C@@H]2CCCCN2)C1 + C#Cc1c(F)ccc2cc(O)cc(-c3ncc4c(N5CC6CCC(C5)N6)nc(OCC56CCCN5CC(F)C6)nc4c3F)c12
IC50 [1]: 0.0877 µM
IC50 [2]: 0.0754 µM
IC50 [3]: 0.0559 µM
IC50 [4]: 0.0305 µM
IC50 [5]: 0.019 µM
IC50 [6]: < 0.00316 µM
viability, T/C [7]: 112%
viability, T/C [8]: 98%
viability, T/C [9]: 83.8%
viability, T/C [10]: 47.4%
viability, T/C [11]: 12.5%
viability, T/C [12]: 5.72%
viability, T/C [13]: 114%
viability, T/C [14]: 112%
viability, T/C [15]: 85.1%
viability, T/C [16]: 39.3%
viability, T/C [17]: 10%
viability, T/C [18]: 6.39%
viability, T/C [19]: 124%
viability, T/C [20]: 111%
viability, T/C [21]: 73.6%
viability, T/C [22]: 25.3%
viability, T/C [23]: 13%
viability, T/C [24]: 5.14%
viability, T/C [25]: 115%
viability, T/C [26]: 96.3%
viability, T/C [27]: 44.3%
viability, T/C [28]: 24.3%
viability, T/C [29]: 8.74%
viability, T/C [30]: 5.44%
viability, T/C [31]: 75.3%
viability, T/C [32]: 64.9%
viability, T/C [33]: 36.6%
viability, T/C [34]: 23.4%
viability, T/C [35]: 7.41%
viability, T/C [36]: 3.17%
viability, T/C [37]: 48.8%
viability, T/C [38]: 35.3%
viability, T/C [39]: 24.3%
viability, T/C [40]: 14.4%
viability, T/C [41]: 1.94%
viability, T/C [42]: 1.77%
